Where two headings read alike, the source gives them in different places. Square brackets hold non-standard residues; d marks the D form. * marks the point of attachment. AMC = Cc1cc(=O)oc2cc(N*)ccc12; pGlu = O=C1CC[C@@H](C(=O)O)N1
How the values were obtained:
human recombinant furin [1] = biological target: T1, human recombinant furin (Homo sapiens, UniProt P09958); type: biochemical
T1 construct: Soluble human recombinant furin was kindly gifted; gift of Dr Anna Kwiatkowska (group of Prof. Robert Day, Université de Sherbrooke)
Method: Initially, the activities of the furin inhibitors were screened at three concentrations, i.e., 2.4, 24.0, and 77.0 nM (Figure 4). For selected peptides 3, 5, and 6 and the reference FI, the inhibitory constants (Ki) were calculated (Table 2). Except for the bicyclic peptide 4, all of the inhibitors almost completely abolished the enzyme activity at the highest tested concentration. Peptide 4 was explicitly the weakest inhibitor in the series, also when compared with its monocyclic disulfide-bridged counterpart 1. When the inhibitory activities were analyzed at the lowest tested concentration (2.4 nM), three peptides (3, 5, and 6) reduced the furin activity to less than 50% of its initial noninhibited activity. All of them have an additional basic amino acid at their N-termini (in MD simulations this is depicted as a residue with number “0”). […] Such close inhibitory potency was not observed in the case of an analogous pair, i.e., 2 and 5. […] The two disulfide-bridged peptides, FI and 1, differ only at the P4 position, having Lys and Arg, respectively. […]
The IC50 values (inhibitor concentrations giving 50% inhibition of enzyme activity) were calculated from plots of enzyme activity (% of control sample) versus the inhibitor’s concentration using a four-parameter fit model (GraFit 5.0.12 Erithacus Software Ltd.). The IC50 values were determined from triplicate measurements with at least seven different inhibitor concentrations. The K i values […] were calculated using the Cheng-Prusoff equation, assuming the competitive mode of inhibition, according to the following relationship: IC50 = K i(1+S/Km). All measurements were performed using a Fluostar Omega microplate reader (BMG Labtech, Germany) and 96-well black plates (BRAND, Germany). Recombinant human matriptase-1/ST14 catalytic domain was purchased from R&D Systems, USA. Recombinant human matriptase-2 was obtained from Enzo Life Sciences, Switzerland.
Soluble human recombinant furin was kindly gifted by Dr Anna Kwiatkowska (group of Prof. Robert Day from Université de Sherbrooke).4
The following assay buffers were used: […] (matriptase-1 and matriptase-2), pH 7.5 100 mM HEPES with 1 mM CaCl 2 and 1.8 mg/mL BSA (furin). The substrates used in the assays were as follows: for matriptase-1 and matriptase-2 Boc-Gln-Ala-Arg-AMC (Pepta Nova, Germany) in final concentration of 5 µM, for furin […] (Pepta Nova, Germany) in final concentration of 20 µM. Enzymes concentrations were as follows: 1.25 ng/mL of matriptase-1, 1.51 U/mL for matriptase-2, and 1.1 nM for furin. In the case of matriptase-1 and matripase-2 concentrations were calculated according to information provided by the suppliers.
In short, the tested compounds were added to the appropriate protease in different concentrations and incubated in an assay buffer at 37 °C for 30 min. After this time, a solution of appropriate substrate was added. Reactions were monitored for at least 40 min at 37 °C. The final volume in each well was 200 µL for matriptases and 100 µL for furin. Measurements were carried out using excitation and emission wavelengths of 380 nm and 450 nm. The percentage inhibition of an enzyme was calculated relative to the control sample without an inhibitor. The K m value for furin substrate was determined by incubating the enzyme with its substrate in various concentrations as recommended.5 Plots of the substrate concentration versus the initial reaction velocity were analyzed according to Michaelis-Menten equation using GraFit 5.0.12 Erithacus Software Ltd. A double reciprocal (Lineweaver-Burk) plot was used to determine the Michaelis constant K m value. K m value determined for furin was 1.90 µM.
(§1) Total furin-like enzyme inhibition/activity in PANC-1 cell lysates
Cell line and cell culture. The pancreatic cancer cell line, PANC-1, was obtained from the American Type Culture Collection, ATCC (Manassas, USA). […]

human recombinant furin [2] = biological target: T1, human recombinant furin; test: Screening (iterative deconvolution) of peptide sublibraries for furin inhibition; type: biochemical; details: Figure 3D1
Method: Each of the sublibraries was screened for inhibitory activity against human recombinant furin in the presence of the fluorogenic substrate Pyr-Arg-Thr-Lys-Arg-AMC (where Pyr is pyroglutamic acid and AMC is 7-amino-4-methylcoumarin). Initially, each sublibrary was screened in a 2.2 ng/mL stock solution (Figure 3).
Phe(4-NH-Boc) we experienced difficulties with complete coupling. So we performed reactions by applying microwave heating (50 °C) which improved the process. The same procedures were applied during the whole library synthesis. 10% of mass of each portion was removed for deconvolution.
2. After that, both portions were combined and divided into 10 (j) equal portions, each of which was acylated individually with different protected amino acid. 10% of the mass of each portion was removed for deconvolution.
3. After mixing all j portions of peptidyl–resin, Cys protected derivative was attached.
4. […]
6. Sublibraries with fixed best hits in Xaa (l-j) were subsequently synthesized (using previously put aside 10% of synthesized sublibraries) and their inhibitory activity was determined until the position Xi. […] The inhibitory activity of sublibraries against furin were measured using Pyr-Arg-Thr-Lys-Arg-AMC fluorogenic substrate (Pepta Nova). The experiments were performed on 96-well plates (BRAND, Germany) and microplate reader FluoStar Omega (BMG Labtech, Germany). […]

PANC-1 cell lysate = details: human, 37 °C
[3] = tested on: furin-like enzyme activity in PANC-1 cell lysate; test: Total furin-like enzyme activity in PANC-1 cell lysate; type: biochemical, human; details: peptide 100 µM
Method: The presence of furin in PANC-1 cell lysate was indicated by analyzing the release of fluorescent AMC product after incubation of furin substrate (Pyr-Arg-Thr-Lys-Arg-AMC) in the lysate, as described elsewhere.[31],[32] However, we are aware that this assay tends to reflect total furin-like enzyme activity rather than the activity of furin exclusively. This is the case because the liberation of AMC may be catalyzed not only by furin but also by an enzyme with a similar substrate preference, such as other PCs.[31] […] For comparison, the effect of a strong trypsin inhibitor, […] SFTI-1, on furin-like activity was insignificant under the same assay conditions. […] It is likely that SFTI-1 may provide protection for furin inhibitors from degradation by trypsin-like proteases. […]
µL for matriptases and 100 µL for furin. Measurements were carried out using excitation and emission wavelengths of 380 nm and 450 nm. The percentage inhibition of an enzyme was calculated relative to the control sample without an inhibitor. […]
as §1
Cell line and cell culture. The pancreatic cancer cell line, PANC-1, was obtained from the American Type Culture Collection, ATCC (Manassas, USA). PANC-1, a human pancreatic cancer cell line, was isolated from the pancreatic duct (ATCC, CRL-1469) and was cultured in Dulbecco’s Modified Eagle’s Medium (DMEM) by supplementing 10% fetal bovine serum (FBS) and 1% of penicillin/streptomycin (P/S). Cells were cultured at 37 °C with 5% CO2 in a humidified atmosphere. Cells were maintained in a 75 cm2 tissue culture flask. The medium was replaced every two days. The subcultivation ratio was […]
Preparation of lysates. PANC-1 cells were seeded in a Petri dishes. After 24 hours, […] were collected and centrifuged at 975 × g at 4 °C for 9 minutes. The supernatant was removed, and the cells were resuspended in a cold PBS buffer. The cells were centrifuged again at 900 × g at 4 °C for 5 minutes.
The supernatant was removed. Cells were suspended in Halt Protease Inhibitor Cocktail, EDTA-Free (100X) (Thermo Fisher Scientific). The samples were stored for 2 hours at -80°C. The samples were then defrosted and centrifuged at 16 000 × g at 4 °C for 20 minutes. The supernatant was stored at -80 […]
The inhibitory potency of selected peptides was examined in cell lysate alone or in presence of sunflower trypsin inhibitor (SFTI-1)6 sing furin fluorogenic substrate […] (Pepta Nova, Germany). Furin activity was determined by monitoring the AMC liberation over time with a plate reader. Measurements were performed using 96-well black plates (BRAND, Germany).
The general procedure was according to.7 In short: 20 µL of cell lysate (diluted 10 times with assay buffer pH 7.5 100 mM HEPES with 1 mM CaCl 2) was added to the well containing 60 µL of water, after 15 min in 37 °C 10 µL of peptide solution (final concentration in well 100 µM) was added. After 30 min incubation in 37 °C 10 µL substrate (100 µM final concentration) was added. […]
Next step was addition of appropriate peptide solution
(final concentration in well 100 µM) and 30 min incubation in 37 °C. After this time 10 µL substrate (100 µM final concentration) was added to the well. Percentage inhibition of the enzyme was calculated relative to the control sample without inhibitor.
Human serum from plasma (Sigma Aldrich, Germany) was prepared for the assay as referred previously.8 The experiments were carried out according to the procedure described before.2 The initial concentration of the peptide solutions was 1.54 mM. Each peptide solution was then diluted 10 times with human serum and incubated at 37 °C. Immediately after the start of incubation, 1, 2, 3, 5 and 24

[4] = inhibitor 77.0 nM (highest tested concentration)

T1 sequence (P09958 108-715 limits assumed): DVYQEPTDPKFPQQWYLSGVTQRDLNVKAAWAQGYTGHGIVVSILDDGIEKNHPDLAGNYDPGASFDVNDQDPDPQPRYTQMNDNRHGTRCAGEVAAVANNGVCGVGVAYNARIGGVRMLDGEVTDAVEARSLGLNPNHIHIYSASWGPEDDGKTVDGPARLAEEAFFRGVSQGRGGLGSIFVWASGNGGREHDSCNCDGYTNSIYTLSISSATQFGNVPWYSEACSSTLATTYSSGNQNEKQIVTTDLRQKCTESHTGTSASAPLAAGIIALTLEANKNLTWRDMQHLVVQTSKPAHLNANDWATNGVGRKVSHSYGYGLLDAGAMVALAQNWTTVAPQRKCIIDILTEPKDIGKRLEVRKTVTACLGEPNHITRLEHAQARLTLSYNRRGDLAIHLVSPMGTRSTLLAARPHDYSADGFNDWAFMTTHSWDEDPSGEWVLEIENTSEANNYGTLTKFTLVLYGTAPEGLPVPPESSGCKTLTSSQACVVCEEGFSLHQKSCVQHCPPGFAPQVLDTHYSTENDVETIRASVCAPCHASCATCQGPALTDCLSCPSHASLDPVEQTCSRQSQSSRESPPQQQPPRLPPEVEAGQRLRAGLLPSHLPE

| furin activity versus control with no inhibitor added (human recombinant furin [1]; inhibitor 2.4 nM) | furin activity versus control with no inhibitor added (human recombinant furin [1]; inhibitor 24.0 nM) | furin activity versus control with no inhibitor added (human recombinant furin [1]; [4]) | times more active than the peptide with Orn at P2 (human recombinant furin [2]) | cleaved bond (PANC-1 cell lysate) | Substance | effect on furin-like activity in PANC-1 cell lysate [3] |
| --- | --- | --- | --- | --- | --- | --- |
| 66.51% | 3.98% | 0.10% |  |  | Lys-Arg-Arg-Cys(&)-Lys-Lys-Ser-Ile-Pro-Pro-Ile-Cys(&)-Phe-NH2 [inhibitor 2] |  |
|  |  |  |  | Arg-AMC | [pGlu]RTKR-{AMC} |  |

Continued, substance first:

| Substance | furin activity versus control with no inhibitor added (human recombinant furin [1]; inhibitor 2.4 nM) | furin activity versus control with no inhibitor added (human recombinant furin [1]; inhibitor 24.0 nM) | furin activity versus control with no inhibitor added (human recombinant furin [1]; [4]) | times more active than the peptide with Orn at P2 (human recombinant furin [2]) | cleaved bond (PANC-1 cell lysate) | effect on furin-like activity in PANC-1 cell lysate [3] |
| --- | --- | --- | --- | --- | --- | --- |
| &^1Arg-Arg-Cys(&^2)-Lys-Lys-Ser-Ile-Pro-Pro-Ile-Cys(&^2)-Phe&^1 (KKSIPPIC; Arg-Arg-Cys, Phe; head-to-tail cyclised, disulfide; printed: Lys-Lys-Ser-Ile-Pro-Pro-Ile-Cys) [inhibitor 4] | 97.18% | 46.14% | 3.72% |  |  |  |
| Arg-Arg-Cys(&)-Lys-Lys-Ser-Ile-Pro-Pro-Ile-Cys(&)-Phe-NH2 [inhibitor 1] | 62.95% | 6.02% | 0.20% | 2–3 times |  |  |
| sunflower trypsin inhibitor 1 [SFTI-1, reference compound] |  |  |  |  |  | insignificant |

From PMC10107917 (ACS Medicinal Chemistry Letters, 2023)
